Starred links: 1 amine or outer side, 2 acyl side, 3 side chain; linkers in the order of their positions; H or OH if unused. Positions of bridges follow the written chain, without caps; N, C: chain ends. Non-standard residues stand in square brackets, D forms with d. Residues, ends and D or L forms follow the SMILES beside them. Chains are numbered I, II in the order given. Actinocin(9to1) = Cc1c2oc3c(C)ccc(C(=O)[*:1])c3nc-2c(C(=O)[*:2])c(N)c1=O; NMeV = CN[C@H](C(=O)O)C(C)C; Sar = CNCC(=O)O
Assays:
Design in all cases: species or system mouse
P388/ADR = test: In vivo activity against drug resistant tumour P388/ADR; conditions: optimum dose 4.5 mg/kg
Experimental: (§1) CD2-F1 mice, of the same sex, weighing within a 3 gram range surrounding 20 g, are used for this test. Control and test animals are injected intraperitoneally with a suspension of 10^6 viable P388/O tumour cells on day 0. In each test several dose levels which bracket the LD20 for the compound are evaluated; each dose level group contains 6 animals. The test compounds are prepared either in physiologic saline containing 0.05% Tween 80 or distilled water containing 5% dextrose and are administered intraperitoneally on days 1,5 and 9 relative to tumour implant. Doses are on a mg/kg basis according to individual animals' body weights. The day of death for each animal is recorded and the median day of death identified for each group. The difference between the median survival time for treated and control groups is expressed as a percentage increase in life span (% ILS).
(§2) E. Activity Against Drug-Resistant Tumours
(§3) Using a similar procedure to the Lymphocytic Leukaemia P388/O test, the compound of Example 1 was evaluated against P388/O tumours which had been made resistant to the following standard, clinically used anti-tumour agents: […]

P388/ActD = test: In vivo activity against drug resistant tumour P388/ActD; conditions: optimum dose 0.5 mg/kg
Experimental: as §1, §2, §3

P388/BCNU = test: In vivo activity against drug resistant tumour P388/BCNU; conditions: optimum dose 2.0 mg/kg
Experimental: as §1, §2
Using a similar procedure to the Lymphocytic Leukaemia P388/O test, the compound of Example 1 was evaluated against P388/O tumours which had been made resistant to the following standard, clinically used anti-tumour agents:
bis-chloronitrosourea (BCNU)

P388/CPA = test: In vivo activity against drug resistant tumour P388/CPA; conditions: optimum dose 265.0 mg/kg
P388/Cis--Pt = test: In vivo activity against drug resistant tumour P388/Cis-Pt; conditions: optimum dose 5.3 mg/kg
P388/5FU = test: In vivo activity against drug resistant tumour P388/5FU; conditions: optimum dose 20.0 mg/kg
Experimental: as §1, §2, §3

## COc1cccc2c1C(=O)c1c(O)c3c(c(O)c1C2=O)C[C@@](O)(C(=O)CO)C[C@@H]3O[C@H]1C[C@H](N)[C@H](O)[C@H](C)O1 [ADR, adriamycin, reference compound]
P388/ADR
  60 Day Survivors: 0/6
  % ILS: +27%

## Cc1c2oc3c(C)ccc(C(=O)N[C@@H]4C(=O)N[C@H](C(C)C)C(=O)N5CCC[C@H]5C(=O)N(C)CC(=O)N(C)[C@@H](C(C)C)C(=O)O[C@@H]4C)c3nc-2c(C(=O)N[C@@H]2C(=O)N[C@H](C(C)C)C(=O)N3CCC[C@H]3C(=O)N(C)CC(=O)N(C)[C@@H](C(C)C)C(=O)O[C@@H]2C)c(N)c1=O [ActD, actinomycin D, reference compound] (I: T[dV]P[Sar][NMeV] / II: T[dV]P[Sar][NMeV]; ester I:1-I:C, II:1-II:C; linker I:N-II:N via Actinocin(9to1))
P388/ActD
  60 Day Survivors: 0/6
  % ILS: +27%

## O=NN(CCCl)C(=O)NCCCl [BCNU, bis-chloronitrosourea, reference compound]
P388/BCNU
  60 Day Survivors: 0/6
  % ILS: +36%

## O=P1(N(CCCl)CCCl)NCCCO1 (stereo not drawn) [CPA, cylophosphamide, reference compound]
P388/CPA
  60 Day Survivors: 0/6
  % ILS: +55%

## N.N.[Cl][Pt][Cl] [Cis--Pt, Cis-platinum, reference compound]
P388/Cis--Pt
  60 Day Survivors: 0/6
  % ILS: +21%

## O=c1[nH]cc(F)c(=O)[nH]1 [Example 5FU, 5-fluorouracil, reference compound]
P388/5FU
  60 Day Survivors: 0/6
  % ILS: +71%
